Entries after “also recorded” stand apart in the source; their conditions may differ.

What all share (assay type): cell-based
Test [1] concerns c-Myc phosphorylation (nuclear target of ERK1/2). Briefly: Western blot, phosphorylated c-Myc. Conditions: 10 μM, 2 hours; TPA; both A2185 and HeLa cells. On the procedure:
(§1) CoIP assay was conducted using αERK1 (C-terminus) antibodies conjugated to protein A/G agarose beads. The precipitates were analyzed by Western blot using the indicated antibodies. Whole cell lysates (WCL) and αIgG-mouse (IgG) are shown as controls. […] Cell extracts were analyzed by Western blot with the indicated antibodies. […] The same extracts described in (B) were subjected to Western blot analysis using αpAkt Abs. The closest molecular weight marker (kDa) is shown on the right of all relevant panels.
(§2) Bars indicate average of 2 independent experiments done in triplicate ±SE. […] Empty squares represent individual data points of proliferation. Full squares indicate average proliferation of 2 independent experiments done in triplicate ±SE. […] Cell viability (as shown in FIGS. 8A and 8B) was measured by staining with methylene blue, and data presents proliferation normalized to DMSO control. […] Cell lysates were analyzed by Western blot with the corresponding antibodies. Closest molecular marker is indicated at the right of each panel.
(§3) Preparation of Cellular Extracts and Western Blotting:
(§4) Cells were grown to 70% confluence and serum starved (0.1% FCS, 16 hours). After treatments, cells were rinsed twice with ice-cold PBS−/− and scraped into RIPA buffer. […]

The subject of test [2] is Elk1 phosphorylation (nuclear target of ERK1/2). Briefly: Western blot, phosphorylated Elk1. The note with it: 10 μM, 2 hours; TPA; melanoma cell line A2185. On the procedure: as §1, §2, §3, §4
For test [3], the system named is A2185 and A2352 cells. Put plainly: Viability assay (methylene blue), two BRAF melanoma cells. The note with it: 3 μM, 72 hours, 1% FCS. On the procedure:
FIGS. 10A, 10B and 10C present data from screening the 20 analogs of Compound Z2 (“C-compounds”) showing three particularly active anti-proliferative compounds. […] A2185 and A2352 cells were grown in 1% FCS containing DMSO (0.1%), EPE peptide, Compound Z56, Compound Z2 or C-compounds (10 μM), for 72 hours. Compounds were categorized according to activity: (1) active, below 40%; (2) moderate activity, below 80%; (3) not active, above 80%. […] A2185 and A2352 cells were grown in 1% FCS containing DMSO (0.1%), EPE peptide (10 μM), compounds Z56, Z2 or selected C-compounds (3 μM), for 72 hours. Empty squares/circles represent individual data points of proliferation. Full squares/circles indicate average proliferation of 2 independent experiments in triplicate±SE. Bold horizontal line defines arbitrary activity threshold of activity below 40%. FIG. 10C presents dose response curves of active C-compounds compounds. A2185 and A2352 were grown in 1% FCS media containing DMSO (0.1%), EPE peptide, Z56, Z2 (10 μM) or compounds C17, C22 and C23 (0.1-10 μM), for 72 hours. […] Cell viability was measured by staining with methylene blue. Data presented as percentage of DMSO control. Bar graphs represent average of 2 independent experiments done in triplicates ±SE.
FIG. 13 presents a graph showing the effect of analogs of Compound C17 (“D-compounds”) on cell viability at a concentration of 10 μM. A2185 and A2352 cells were grown in 1% FCS media containing DMSO (0.1%) EPE peptide (10 μM), Compounds Z56, Z2, C17 (10 μM) as controls, and D-Compounds (10 μM), for 72 hours. Viable cells were measured by staining with methylene blue. Bar graphs represent average of 2 independent experiments done in triplicates. Data presented as percentage of DMSO proliferation ±standard error.
FIG. 14 presents a graph showing the effect of analogs of Compound C17 (“D-compounds”) on cell viability at a concentration of 1 μM. A2185 and A2352 cells were grown in 1% FCS media containing DMSO (0.1%), EPE peptide (10 μM), Compounds Z56, Z2 and C17 (1 and 10 μM) as controls, and D-compounds (1 μM), for 72 hours. Viable cells were measured by staining with methylene blue. Bar graphs represent average of 2 independent experiments done in triplicates. Data presented as percentage of DMSO proliferation ±standard error.
Cells were seeded at low confluence into 24, 48 or 96-well plates in complete medium. After 24 hours, medium was replaced by 1% FCS (fetal calf serum) containing appropriate treatments. Fresh medium containing the same agents was replaced every day. After 72 or 96 hours of treatment, cells were fixed with 4% formaldehyde overnight at 23° C., washed once with 0.1 M borate buffer (pH 8.5) for 10 minutes, and stained with of 1% methylene blue in 0.1 M borate buffer (pH 8.5) for 30 minutes. Excess stain was washed out with distilled water. Color was extracted by adding 0.1 M HCl (3 hours, 23° C.), and absorbance measured at 595 nm in an ELISA reader. For time course experiments, attached cells were fixed and measured at 0, 24, 48, 72 and 96 hours. For dose-response experiments, cells were treated with indicated concentrations of reagent, fixed and stained after 72 hours as above.
The ability of the selected compounds to reduce cell viability of two BRAF melanoma cells (A2185 and A2352) was evaluated. Initially, all compounds were assayed at a relatively high concentration of 10 μM.

Test [4] deals with ERK1/2 phosphorylated at the TEY activation loop motif. Put plainly: Western blot, ERK1/2 activation loop (TEY) phosphorylation. The note with it: 10 μM, 2 hours; TPA; A2185 or HeLa cells. As for the experimental part:
as §1, §2, §3, §4

The test system of test [5] is A2185 cells. Briefly: Viability assay, dose response in A2185 cells. Conditions: 0.1-10 μM, 72 hours, 1% FCS. On the procedure: Four cancer cells, A2185, A2352, HeLa and MCF7 were grown in 1% FCS containing 10 μM of either EPE peptide, or Compounds Z56, Z1, Z2 or Z3, for 72 hours. Bars indicate average of 2 independent experiments done in triplicate ±SE. FIG. 8B presents dose response curves for Compounds Z56, Z1 and Z2. A2185 cells were grown in 1% FCS containing DMSO (0.1%) EPE or Scramble (Scr) peptide (10 μM), Compounds Z56, Z1, Z2, Z3 ([…]) or no treatment (FCS 1%) for 72 hours. Empty squares represent individual data points of proliferation. Full squares indicate average proliferation of 2 independent experiments done in triplicate ±SE. Bold horizontal line indicates arbitrary threshold (40%) for what is considered an active compound. Cell viability (as shown in FIGS. 8A and 8B) was measured by staining with methylene blue, and data presents proliferation normalized to DMSO control. […] Cell lysates were analyzed by Western blot with the corresponding antibodies. […]
Cells were seeded at low confluence into 24, 48 or 96-well plates in complete medium. […] Color was extracted by adding 0.1 M HCl (3 hours, 23° C.), and absorbance measured at 595 nm in an ELISA reader. For time course experiments, attached cells were fixed and measured at 0, 24, 48, 72 and 96 hours. […]

Take `O=C(OC1C=CS(=O)(=O)C1)c1ccccc1` (centres unmarked) [Compound Z2]: the “levels of phosphorylated c-Myc” value in test [1] was “decreased”. Moreover, the “levels of phosphorylated Elk1” value in test [2] is given as “decreased significantly”. In test [3], the “cell viability at lower concentration” value was “variable activity”. Also, in test [4], the “phosphorylation of the activation loop of ERK1/2” value was “none of Compounds Z56, Z1, Z2 or Z3 affected”. In addition, the “cell viability, dose response curve” value in test [5] is reported as “dose dependent manner; also recorded: somewhat less potent than Compound Z56”.

(Values after patent US12286439B2, “Inhibitors of ERK nuclear translocation” (Yeda Research and Development Co. Ltd., priority 2018, dated 2025).)
